Measurements published in PubChem BioAssay AID1963961 (Molecular Pharmacology Branch, DTP, NCI, 2024).

Test system: K98450-129-R-PDC multicell spheroids, viability
Assay: Anticancer human tumor K98450-129-R-PDC patient-derived colon adenocarcinoma cell line growth inhibition [PI3K]
Details: for IC50: curve of first compound; for viability, T/C: stronger effect = lower value
In short: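 Targeted small molecules plus PI3K inhibitors, half-log dose series from Cmax (default top 10 microM), were applied to heterotypic spheroids of cancer cells with HUVEC and MSCs. Viability indicated growth inhibition.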

[1] = second compound 0.0316 µM, first compound 0.0316 µM
[2] = second compound 0.0316 µM, first compound 0.1 µM
[3] = second compound 0.0316 µM, first compound 0.316 µM
[4] = second compound 0.0316 µM, first compound 1 µM
[5] = second compound 0.1 µM, first compound 0.0316 µM
[6] = second compound 0.1 µM, first compound 0.1 µM
[7] = second compound 0.1 µM, first compound 0.316 µM
[8] = second compound 0.1 µM, first compound 1 µM
[9] = second compound 0.316 µM, first compound 0.0316 µM
[10] = second compound 0.316 µM, first compound 0.1 µM
[11] = second compound 0.316 µM, first compound 0.316 µM
[12] = second compound 0.316 µM, first compound 1 µM
[13] = second compound 1 µM, first compound 0.0316 µM
[14] = second compound 1 µM, first compound 0.1 µM
[15] = second compound 1 µM, first compound 0.316 µM
[16] = second compound 1 µM, first compound 1 µM
[17] = second compound 3.16 µM, first compound 0.0316 µM
[18] = second compound 3.16 µM, first compound 0.1 µM
[19] = second compound 3.16 µM, first compound 0.316 µM
[20] = second compound 3.16 µM, first compound 1 µM
[21] = second compound 10 µM, first compound 0.0316 µM
[22] = second compound 10 µM, first compound 0.1 µM
[23] = second compound 10 µM, first compound 0.316 µM
[24] = second compound 10 µM, first compound 1 µM
[25] = second compound 0.0316 µM, first compound 3.16 µM
[26] = second compound 0.0316 µM, first compound 10 µM
[27] = second compound 0.1 µM, first compound 3.16 µM
[28] = second compound 0.1 µM, first compound 10 µM
[29] = second compound 0.316 µM, first compound 3.16 µM
[30] = second compound 0.316 µM, first compound 10 µM
[31] = second compound 1 µM, first compound 3.16 µM
[32] = second compound 1 µM, first compound 10 µM
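Also: spheroids exposed to agents for seven days before read-out.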

## CCN1CCN(Cc2ccc(Nc3ncc(F)c(-c4cc(F)c5nc(C)n(C(C)C)c5c4)n3)nc2)CC1 + Cc1nc(NC(=O)N2CCCC2C(N)=O)sc1-c1ccnc(C(C)(C)C(F)(F)F)c1
Second compound 0.0316 µM
  IC50: > 1 µM
Second compound 0.1 µM
  IC50: > 1 µM
Second compound 0.316 µM
  IC50: > 1 µM
Second compound 1 µM
  IC50: > 1 µM
Second compound 3.16 µM
  IC50: > 1 µM
Second compound 10 µM
  IC50: > 1 µM
Second compound 0.0316 µM, first compound 0.00316 µM
  viability, T/C: 115%
Second compound 0.0316 µM, first compound 0.01 µM
  viability, T/C: 97.7%
[1]
  viability, T/C: 106%
[2]
  viability, T/C: 91.1%
[3]
  viability, T/C: 86.9%
[4]
  viability, T/C: 94.8%
Second compound 0.1 µM, first compound 0.00316 µM
  viability, T/C: 115%
Second compound 0.1 µM, first compound 0.01 µM
  viability, T/C: 95.9%
[5]
  viability, T/C: 99.8%
[6]
  viability, T/C: 93.5%
[7]
  viability, T/C: 96.8%
[8]
  viability, T/C: 91.1%
Second compound 0.316 µM, first compound 0.00316 µM
  viability, T/C: 103%
Second compound 0.316 µM, first compound 0.01 µM
  viability, T/C: 102%
[9]
  viability, T/C: 91.1%
[10]
  viability, T/C: 87.7%
[11]
  viability, T/C: 85.3%
[12]
  viability, T/C: 96%
Second compound 1 µM, first compound 0.00316 µM
  viability, T/C: 98.3%
Second compound 1 µM, first compound 0.01 µM
  viability, T/C: 89.4%
[13]
  viability, T/C: 91.2%
[14]
  viability, T/C: 87.4%
[15]
  viability, T/C: 84.6%
[16]
  viability, T/C: 85.6%
Second compound 3.16 µM, first compound 0.00316 µM
  viability, T/C: 84.8%
Second compound 3.16 µM, first compound 0.01 µM
  viability, T/C: 80.6%
[17]
  viability, T/C: 86.2%
[18]
  viability, T/C: 84.7%
[19]
  viability, T/C: 79.3%
[20]
  viability, T/C: 83.5%
Second compound 10 µM, first compound 0.00316 µM
  viability, T/C: 73.7%
Second compound 10 µM, first compound 0.01 µM
  viability, T/C: 75.9%
[21]
  viability, T/C: 70.6%
[22]
  viability, T/C: 67.5%
[23]
  viability, T/C: 67%
[24]
  viability, T/C: 70.4%

## Cn1nccc1Nc1nccc(-c2ccn(C(CO)c3ccc(Cl)c(F)c3)c(=O)c2)n1 (stereo unspecified) + Cc1nc(NC(=O)N2CCCC2C(N)=O)sc1-c1ccnc(C(C)(C)C(F)(F)F)c1
Second compound 0.0316 µM
  IC50: > 10 µM
Second compound 0.1 µM
  IC50: > 10 µM
Second compound 0.316 µM
  IC50: > 10 µM
Second compound 1 µM
  IC50: > 10 µM
Second compound 3.16 µM
  IC50: > 10 µM
Second compound 10 µM
  IC50: > 10 µM
[1]
  viability, T/C: 107%
[2]
  viability, T/C: 97.7%
[3]
  viability, T/C: 103%
[4]
  viability, T/C: 109%
[25]
  viability, T/C: 97.2%
[26]
  viability, T/C: 89.2%
[5]
  viability, T/C: 114%
[6]
  viability, T/C: 104%
[7]
  viability, T/C: 100%
[8]
  viability, T/C: 92.6%
[27]
  viability, T/C: 96.7%
[28]
  viability, T/C: 97.8%
[9]
  viability, T/C: 104%
[10]
  viability, T/C: 103%
[11]
  viability, T/C: 94.1%
[12]
  viability, T/C: 98.6%
[29]
  viability, T/C: 98.5%
[30]
  viability, T/C: 83.3%
[13]
  viability, T/C: 91.6%
[14]
  viability, T/C: 95.2%
[15]
  viability, T/C: 93.5%
[16]
  viability, T/C: 84.9%
[31]
  viability, T/C: 98.6%
[32]
  viability, T/C: 80.8%
[17]
  viability, T/C: 78.9%
[18]
  viability, T/C: 86.1%
[19]
  viability, T/C: 87%
[20]
  viability, T/C: 77.9%
Second compound 3.16 µM, first compound 3.16 µM
  viability, T/C: 85.4%
Second compound 3.16 µM, first compound 10 µM
  viability, T/C: 64.7%
[21]
  viability, T/C: 71%
[22]
  viability, T/C: 70.7%
[23]
  viability, T/C: 72.2%
[24]
  viability, T/C: 75%
Second compound 10 µM, first compound 3.16 µM
  viability, T/C: 77.8%
Second compound 10 µM, first compound 10 µM
  viability, T/C: 50.9%

## C#Cc1c(F)ccc2cc(O)cc(-c3ncc4c(N5CC6CCC(C5)N6)nc(OCC56CCCN5CC(F)C6)nc4c3F)c12 (stereo unspecified) + COc1c(OCCCN2CCOCC2)ccc2c3n(c(=NC(=O)c4cnc(N)nc4)nc12)CCN3
Second compound 0.00316 µM
  IC50: > 10 µM
Second compound 0.01 µM
  IC50: > 10 µM
Second compound 0.0316 µM
  IC50: > 10 µM
Second compound 0.1 µM
  IC50: > 10 µM
Second compound 0.316 µM
  IC50: > 10 µM
Second compound 1 µM
  IC50: 2.44 µM
Second compound 0.00316 µM, first compound 0.0316 µM
  viability, T/C: 114%
Second compound 0.00316 µM, first compound 0.1 µM
  viability, T/C: 108%
Second compound 0.00316 µM, first compound 0.316 µM
  viability, T/C: 110%
Second compound 0.00316 µM, first compound 1 µM
  viability, T/C: 90%
Second compound 0.00316 µM, first compound 3.16 µM
  viability, T/C: 89.1%
Second compound 0.00316 µM, first compound 10 µM
  viability, T/C: 81.7%
Second compound 0.01 µM, first compound 0.0316 µM
  viability, T/C: 122%
Second compound 0.01 µM, first compound 0.1 µM
  viability, T/C: 113%
Second compound 0.01 µM, first compound 0.316 µM
  viability, T/C: 99.9%
Second compound 0.01 µM, first compound 1 µM
  viability, T/C: 101%
Second compound 0.01 µM, first compound 3.16 µM
  viability, T/C: 100%
Second compound 0.01 µM, first compound 10 µM
  viability, T/C: 79.5%
[1]
  viability, T/C: 91.6%
[2]
  viability, T/C: 101%
[3]
  viability, T/C: 76%
[4]
  viability, T/C: 81.7%
[25]
  viability, T/C: 85.6%
[26]
  viability, T/C: 74.3%
[5]
  viability, T/C: 64%
[6]
  viability, T/C: 65.7%
[7]
  viability, T/C: 80.8%
[8]
  viability, T/C: 71%
[27]
  viability, T/C: 75.8%
[28]
  viability, T/C: 64.3%
[9]
  viability, T/C: 60.8%
[10]
  viability, T/C: 58%
[11]
  viability, T/C: 67.3%
[12]
  viability, T/C: 62.6%
[29]
  viability, T/C: 49.1%
[30]
  viability, T/C: 47.9%
[13]
  viability, T/C: 54.6%
[14]
  viability, T/C: 66%
[15]
  viability, T/C: 53.9%
[16]
  viability, T/C: 51.2%
[31]
  viability, T/C: 50.9%
[32]
  viability, T/C: 25.8%
